Measured values taken from ChEMBL document CHEMBL1201862, “PubChem BioAssay data set” (2004).
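These data come from cells grown in 96-well plates and exposed to compound for 48 hours at five concentrations. GI50: concentration for 50% inhibition of growth.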 Active and inactive are the calls of the source. No stated cut-off is given here; in the data, active = GI50 up to about 1.1 µM and inactive = higher.

How the values were obtained:
Assay in all cases: NCI tumour cell line growth inhibition, 48 h
[1] = tested on: HCC 2998
[2] = tested on: SNB-75
[3] = tested on: IGROV-1
[4] = tested on: CAKI-1
[5] = tested on: RXF 393
[6] = tested on: T47D
[7] = tested on: K562
[8] = tested on: SF-268
[9] = tested on: PC-3
[10] = tested on: KM12
[11] = tested on: TK-10
[12] = tested on: SK-MEL-28
[13] = tested on: HOP-62
[14] = tested on: M14
[15] = tested on: EKVX
[16] = tested on: HT-29
[17] = tested on: MDA-N
[18] = tested on: SN12C
[19] = tested on: UACC-257
[20] = tested on: UACC-62
[21] = tested on: SK-OV-3
[22] = tested on: Malme-3M
[23] = tested on: RPMI-8226
[24] = tested on: 786-0
[25] = tested on: MCF7
[26] = tested on: COLO 205
[27] = tested on: NCI-H23
[28] = tested on: OVCAR-8
[29] = tested on: MOLT-4
[30] = tested on: MDA-MB-231
[31] = tested on: HL-60
[32] = tested on: DU-145
[33] = tested on: A549
[34] = tested on: SW-620
[35] = tested on: SK-MEL-5
[36] = tested on: HCT-15
[37] = tested on: SF-295
[38] = tested on: SR

**Q.** What does the source list for Clc1ccc(/C=N/Nc2nnc3c4ccccc4c4ncccc4c3n2)cc1?
**A.** GI50 [1]: > 10 µM (inactive); GI50 [2]: > 10 µM (inactive); GI50 [3]: > 10 µM (inactive); GI50 [4]: > 10 µM (inactive); GI50 [5]: > 10 µM (inactive); GI50 [6]: > 10 µM (inactive); GI50 [7]: > 10 µM (inactive); GI50 [8]: > 10 µM (inactive); GI50 [9]: > 10 µM (inactive); GI50 [10]: > 10 µM (inactive); GI50 [11]: > 10 µM (inactive); GI50 [12]: > 10 µM (inactive); GI50 [13]: > 10 µM (inactive); GI50 [14]: > 10 µM (inactive); GI50 [15]: > 10 µM (inactive); GI50 [16]: > 10 µM (inactive); GI50 [17]: > 10 µM (inactive); GI50 [18]: > 10 µM (inactive); GI50 [19]: > 10 µM (inactive); GI50 [20]: > 10 µM (inactive); GI50 [21]: > 10 µM (inactive); GI50 [22]: > 10 µM (inactive); GI50 [23]: > 10 µM (inactive); GI50 [24]: > 10 µM (inactive); GI50 [25]: > 10 µM (inactive); GI50 [26]: > 10 µM (inactive); GI50 [27]: > 10 µM (inactive); GI50 [28]: > 10 µM (inactive); GI50 [29]: > 10 µM (inactive); GI50 [30]: > 10 µM (inactive); GI50 [31]: > 10 µM (inactive); GI50 [32]: > 10 µM (inactive); GI50 [33]: > 10 µM (inactive); GI50 [34]: > 10 µM (inactive); GI50 [35]: > 10 µM (inactive); GI50 [36]: > 10 µM; GI50 [37]: > 10 µM (inactive); GI50 [38]: > 10 µM (inactive)
